In PMC11822212, “High-throughput screening identifies Aurora kinase B as a critical therapeutic target for Merkel cell carcinoma” (Nature Communications, 2025):
Where a name gives a salt, the structure may show the parent alone. Read-outs that look alike come from different tables or passages of the source.

Tests used:
HEK293T cells = test: qHTS cell viability (CellTiter-Glo, 72 h; primary screen), control cell line; format: cell-based, human
UISO cells (VN-MCC) = test: qHTS cell viability (CellTiter-Glo, 72 h; primary and follow-up small molecule screen); format: cell-based, human
MCC26 cells (VN-MCC) = test: as above; format: cell-based, human
MKL-1 cells (VP-MCC) = test: as above; format: cell-based, human
HACAT cells = test: qHTS cell viability (CellTiter-Glo, 72 h; primary screen), control cell line; format: cell-based, human
NIH-3T3 cells = test: as above; format: cell-based, mouse
MCC13 cells (VN-MCC) = test: qHTS cell viability (CellTiter-Glo, 72 h; primary and follow-up small molecule screen); format: cell-based, human
MKL-2 cells (VP-MCC) = test: as above; format: cell-based, human
CRL-7250 cells = test: qHTS cell viability (CellTiter-Glo, 72 h; primary screen), control cell line; format: cell-based
WAGA cells (VP-MCC) = test: qHTS cell viability (CellTiter-Glo, 72 h; primary and follow-up small molecule screen); format: cell-based, human
[1] = area under the dose-response curve, HEK293T control cells, AUC<450 = reduced viability
[2] = area under the dose-response curve, UISO cells, AUC<450 = reduced viability
[3] = area under the dose-response curve, MCC26 cells, AUC<450 = reduced viability
[4] = area under the dose-response curve, MKL-1 cells, AUC<450 = reduced viability
[5] = area under the dose-response curve, HACAT control cells, AUC<450 = reduced viability
[6] = area under the dose-response curve, NIH3T3 control cells, AUC<450 = reduced viability
[7] = area under the dose-response curve, MCC13 cells, AUC<450 = reduced viability
[8] = area under the dose-response curve, MKL-2 cells, AUC<450 = reduced viability
[9] = area under the dose-response curve, CRL7250 control cells, AUC<450 = reduced viability
[10] = area under the dose-response curve, WAGA cells, AUC<450 = reduced viability

Compound	HEK293T_AUC (HEK293T cells; [1])	UISO_AUC (UISO cells (VN-MCC); [2])	MCC26_AUC (MCC26 cells (VN-MCC); [3])	MKL1_AUC (MKL-1 cells (VP-MCC); [4])	HACAT_AUC (HACAT cells; [5])	NIH3T3_AUC (NIH-3T3 cells; [6])	MCC13_AUC (MCC13 cells (VN-MCC); [7])	MKL2_AUC (MKL-2 cells (VP-MCC); [8])	CRL7250_AUC (CRL-7250 cells; [9])	WAGA_AUC (WAGA cells (VP-MCC); [10])	HEK293T_AUC (HEK293T cells)	UISO_AUC (UISO cells (VN-MCC))	MCC26_AUC (MCC26 cells (VN-MCC))	MKL1_AUC (MKL-1 cells (VP-MCC))	HACAT_AUC (HACAT cells)	NIH3T3_AUC (NIH-3T3 cells)	MCC13_AUC (MCC13 cells (VN-MCC))	MKL2_AUC (MKL-2 cells (VP-MCC))	CRL7250_AUC (CRL-7250 cells)	WAGA_AUC (WAGA cells (VP-MCC))	also measured
C[C@H](CCC(=O)O)[C@H]1CC[C@H]2[C@@H]3[C@H](O)C[C@@H]4C[C@H](O)CC[C@]4(C)[C@H]3CC[C@]12C [Chenodeoxycholic acid]	474.014	483.595	489.842	439.87	475.403	479.384	458.762	427.388	462.86	440.562	–	–	–	–	–	–	–	–	–	–	–
O=c1cccc2n1C[C@@H]1CNC[C@H]2C1 [Cytisine]	–	–	–	–	–	–	–	–	–	–	476.432	498.318	479.664	435.746	465.853	477.468	474.327	398.634	469.524	346.525	Area under the dose-response curve (AUC) UISO Replicate 1 (UISO cells (VN-MCC)): 456.3; Area under the dose-response curve (AUC) UISO Replicate 2 (UISO cells (VN-MCC)): 469.0; Area under the dose-response curve (AUC) UISO Replicate 3 (UISO cells (VN-MCC)): 502.6; Area under the dose-response curve (AUC) MCC26 Replicate 1 (MCC26 cells (VN-MCC)): 425.8; Area under the dose-response curve (AUC) MCC26 Replicate 2 (MCC26 cells (VN-MCC)): 426.1; Area under the dose-response curve (AUC) MCC26 Replicate 3 (MCC26 cells (VN-MCC)): 461.0; Area under the dose-response curve (AUC) MKL-1 Replicate 1 (MKL-1 cells (VP-MCC)): 469.7; Area under the dose-response curve (AUC) MKL-1 Replicate 2 (MKL-1 cells (VP-MCC)): 497.8; Area under the dose-response curve (AUC) MKL-1 Replicate 3 (MKL-1 cells (VP-MCC)): 481.7; Area under the dose-response curve (AUC) MCC13 Replicate 1 (MCC13 cells (VN-MCC)): 466.2; Area under the dose-response curve (AUC) MCC13 Replicate 2 (MCC13 cells (VN-MCC)): 472.1; Area under the dose-response curve (AUC) MCC13 Replicate 3 (MCC13 cells (VN-MCC)): 495.9; Area under the dose-response curve (AUC) MKL-2 Replicate 1 (MKL-2 cells (VP-MCC)): 465.6; Area under the dose-response curve (AUC) MKL-2 Replicate 2 (MKL-2 cells (VP-MCC)): 500.2; Area under the dose-response curve (AUC) MKL-2 Replicate 3 (MKL-2 cells (VP-MCC)): 495.6; Area under the dose-response curve (AUC) WAGA Replicate 1 (WAGA cells (VP-MCC)): 496.1; Area under the dose-response curve (AUC) WAGA Replicate 2 (WAGA cells (VP-MCC)): 525.9; Area under the dose-response curve (AUC) WAGA Replicate 3 (WAGA cells (VP-MCC)): 499.6
CC(C)CN(C[C@@H](O)[C@H](Cc1ccccc1)NC(=O)O[C@H]1CO[C@H]2OCC[C@H]21)S(=O)(=O)c1ccc(N)cc1 [Darunavir]	–	–	–	–	–	–	–	–	–	–	472.283	505.158	501.486	420.268	465.16	481.353	471.675	413.603	469.055	433.192	–
CCCCCCCCCCCC1=C(O)C(=O)C=C(O)C1=O [Embelin]	470.759	474.744	492.758	418.887	451.959	468.399	489.799	427.936	461.338	416.987	–	–	–	–	–	–	–	–	–	–	Area under the dose-response curve (AUC) UISO Replicate 1 (UISO cells (VN-MCC); follow-up screen, UISO, replicate 1): 471.2; Area under the dose-response curve (AUC) UISO Replicate 2 (UISO cells (VN-MCC); follow-up screen, UISO, replicate 2): 418.0; Area under the dose-response curve (AUC) UISO Replicate 3 (UISO cells (VN-MCC); follow-up screen, UISO, replicate 3): 438.8; Area under the dose-response curve (AUC) MCC26 Replicate 1 (MCC26 cells (VN-MCC); follow-up screen, MCC26, replicate 1): 439.2; Area under the dose-response curve (AUC) MCC26 Replicate 2 (MCC26 cells (VN-MCC); follow-up screen, MCC26, replicate 2): 416.6; Area under the dose-response curve (AUC) MCC26 Replicate 3 (MCC26 cells (VN-MCC); follow-up screen, MCC26, replicate 3): 455.7; Area under the dose-response curve (AUC) MKL-1 Replicate 1 (MKL-1 cells (VP-MCC); follow-up screen, MKL-1, replicate 1): 561.5; Area under the dose-response curve (AUC) MKL-1 Replicate 2 (MKL-1 cells (VP-MCC); follow-up screen, MKL-1, replicate 2): 475.0; Area under the dose-response curve (AUC) MKL-1 Replicate 3 (MKL-1 cells (VP-MCC); follow-up screen, MKL-1, replicate 3): 443.8; Area under the dose-response curve (AUC) MCC13 Replicate 1 (MCC13 cells (VN-MCC); follow-up screen, MCC13, replicate 1): 496.2; Area under the dose-response curve (AUC) MCC13 Replicate 2 (MCC13 cells (VN-MCC); follow-up screen, MCC13, replicate 2): 470.6; Area under the dose-response curve (AUC) MCC13 Replicate 3 (MCC13 cells (VN-MCC); follow-up screen, MCC13, replicate 3): 448.5; Area under the dose-response curve (AUC) MKL-2 Replicate 1 (MKL-2 cells (VP-MCC); follow-up screen, MKL-2, replicate 1): 476.0; Area under the dose-response curve (AUC) MKL-2 Replicate 2 (MKL-2 cells (VP-MCC); follow-up screen, MKL-2, replicate 2): 454.8; Area under the dose-response curve (AUC) MKL-2 Replicate 3 (MKL-2 cells (VP-MCC); follow-up screen, MKL-2, replicate 3): 454.5; Area under the dose-response curve (AUC) WAGA Replicate 1 (WAGA cells (VP-MCC); follow-up screen, WAGA, replicate 1): 543.3; Area under the dose-response curve (AUC) WAGA Replicate 2 (WAGA cells (VP-MCC); follow-up screen, WAGA, replicate 2): 384.9; Area under the dose-response curve (AUC) WAGA Replicate 3 (WAGA cells (VP-MCC); follow-up screen, WAGA, replicate 3): 441.0
CCOC(=O)[C@H](CCc1ccccc1)N[C@@H](C)C(=O)N1CCC[C@H]1C(=O)O [Enalapril maleate]	479.159	510.45	486.615	398.754	461.773	481.903	497.832	341.505	468.406	389.514	–	–	–	–	–	–	–	–	–	–	–
